Experimental findings from patent US20060099712A1, “Correlation of anti-cancer activity of dyes with redox potentials” (Eastman Kodak Company, priority 2004, published 2006) are described below.

Some results are limits rather than exact numbers.

For the experiment, the system named is CX-1 Human Colon Carcinoma. Nature of the experiment: Clonogenic dye screening assay, CX-1 cells (IC50). As to conditions: for CX (IC50 in the CX-1 cell line): 3 hrs treatment, colonies after 7-10 days, unit from method b117-118; for CV/CX (selectivity, kill ratio): ratio of IC50 in normal CV-1 line to IC50 in carcinoma CX-1 line; for CX: CX-1 cells; for CV/CX: selectivity ratio of IC50 values; for CV/C: selectivity ratio, value of 1 where dye inactive. In kind it is cell-based. Also noted: CX: unit not given here. From the text: CX-1 is a cancerous human colon adenocarcinoma cell line. CV-1 is a non-cancerous control, which is a kidney epithelial cell line from an African green monkey. IC50 is the dye concentration at which 50% of the cells are killed. Selectivity or kill ratio is defined as the ratio of […] at IC50 for both CX-1 and CV-1. A ratio with a high number indicates a high selectivity.
The dyes were screened in two cell lines. CX-1 is a human colon adenocarcinoma cell line. CV-1 is a kidney epithelial cell line from an African green monkey. CV-1 was used as a reference because no normal human epithelial cell line is available for clonogenic assay.
In the initial screen, dyes were examined at six different concentrations to generate a dose response curve. An IC50 value, the concentration at which 50% of the cells are killed, was then calculated. Initially, a dye concentration of 1.0 μg/mL was the highest examined for the CX-1 cell line and 0.005 μg/mL was the lower limit. The corresponding limits on the CV-1 cell line were […].
The screening procedure used a response curve that was determined from eight dye concentrations. The upper and lower limits of CX-1 were 0.32 and 0.0015 μg/mL, respectively, and the corresponding revised limits on CV-1 were 3.2 and 0.025 μg/mL. The screening results were reported by assigning an IC50 value to each dye for the CV-1 and CX-1 cell lines. These values will be referred to herein simply as CV and CX. The most desirable result would be to have a dye that was highly toxic to carcinoma cells but nontoxic to ‘normal’ cells. One measure of this type of selectivity is the ratio of the IC50's in the normal cell line to that in the carcinoma line, CV/CX.
Compounds are screened via an in vitro assay. CV-1 and CX-1 cells are seeded into separate assay plates. The plates are treated with varying concentrations of test compounds, rinsed, and colonies allowed to grow. IC50's are determined and drugs evaluated based on their selectivity and toxicity. Assay Steps: • I. Seeding Cells • II. Weighing • III. Preparation of Solution • IV. Treatment • V. Rinsing and Feeding • VI. Fixing • VII. IC50 Determination I. Seeding Cells
The cells should be seeded 16-30 hours before treatment. The media for CV-1 cells is DME+5% calf serum +5% Nuserum. The media for CX-1 cells is RPMI/DME (50/50)+5% calf serum +5% Nuserum.
(c) number of cells based on 2000 CX-1 cells/well and 1000 CV-1 cells/well. NOTE: Always make enough cell suspension for 1 extra plate to allow for volume loss during transfers.
• (a) For CV-1: 256 ug/ml-256 ul of 1 mg/ml stock +744 ul DMSO • (b) For CX-1: 25.6 ug/ml-100 ul of 256 ug/ml+900 ul DMSO IV. Treatment • 1. Each plate is treated with 4 test compounds, one positive control and one negative control. • 2. Serial dilutions of the compounds are made in the following way:
2 multi-well pipetters are used. One is set for 10 ul and one for 200 ul. Each is equipped with 6 tips spaced such that they fit into the 6 rows of a plate. 390 ul of media is added to the first column of each plate. 10 ul each of 4 compound solutions, a positive and a negative control are taken up and put into the first column of wells. The 200 ul pipetter is then placed in the same wells, pipetted up and down 3 times and two 200 ul aliquots are moved to the next column of wells. This column is pipetted up and down 3 times and 400 ul moved to column 3, etc. The final 400 ul excess from column 8 is discarded.
• 3. Label the plates along the front, each row −1 compound. • 4. Incubate the plates at 37° C. for 3 hrs. V. Rinsing • 1. Prepare several bottles of CX-1 and CV-1 media. • 2. Check for precipitate in first column of each plate and note. • 3. Starting with the plates treated first, rinse several plates at a time by aspirating the treatments and refilling each well with 0.5-1.0 ml of the rinse media. Aspirate and refill 2 more times for a total of 3 rinses. • 4.

Where [1] appears, read: Table XXI, oxathiacarbocyanine nitrogen substituents.
Setting [2] is: listed as drawing 41|Et|5-Cl|5-Cl.

For `CCN1/C(=C/C(=C/c2sc3ccc4ccccc4c3[n+]2CC)SC)Oc2ccc3ccccc3c21` [drawing 40|E|SMe], the “CX (IC50 in the CX-1 cell line)” value was 0.04 µg/mL and the “CV/CX (selectivity, kill ratio)” value worked out at 5.0.
On the same counts, the results for `CCN1C(=CC=Cc2oc3ccc(OC)cc3[n+]2CC)Oc2ccc(OC)cc21` [drawing 45|5-MeO|5-MeO] are 0.31 µg/mL and 5.16.
Taken in the same sequence, the figures for `C=C(Br)C[n+]1c(/C=C/C=C2\Oc3ccccc3N2CC)sc2ccccc21` [drawing 37|CC(Br)═C|Et] were 0.03 µg/mL and 33.3.
In the case of `CC[n+]1c(/C=C/C=C2\Oc3cc([N+](=O)[O-])c(Cl)cc3N2C)sc2cc([N+](=O)[O-])ccc21` [drawing 44|E/M|6-N03|5-Cl, 6-N03], the “CV/CX (selectivity, kill ratio)” value amounted to 10.0.
The compound `CN1C(=CC=Cc2[te]c3ccccc3[n+]2C)[Te]c2ccccc21` [R=M, X=Te, Z1=H, R2=H, Z2=H] yielded a CX (Table XVII, benzotellurazole derivatives) of 0.30. Moreover, the CV/CX (Table XVII) turned out to be 16.7.
Take `CCC=NNC(N)=S` [drawing 37|CCC═NNC(═S)N|Et]: the “CX (IC50 in the CX-1 cell line)” value is greater than 1.0 µg/mL and the “CV/CX (selectivity, kill ratio)” value is given as 10.0.
With `CC[n+]1c(/C=C/C=C2\Sc3ccc4ccccc4c3N2C)sc2ccccc21` [naphtho/1,2/thiazole (R=E/M)], the CX (Table XVI, unsymmetrical dyes) turned out to be 0.300. For the same compound, the CV/CX (Table XVI) worked out at 13.3.
`CC[n+]1c(/C=C/C=C2\Oc3ccccc3N2CC(=O)c2ccccc2)sc2ccccc21` [R1=Et, R2=C(C═O)Ph]: the CX under setting [1] came to 0.8. For the same compound, the CV/C (Table XXI) is given as 3.7.
For the compound `CCN1/C(=C\C=C\c2[se]c3ccccc3[n+]2CC)Sc2cc(O)c(O)cc21` [drawing 46|Se|S|H|5,6-OH], the “CX (IC50 in the CX-1 cell line)” value came out at 0.30 µg/mL and the “CV/CX (selectivity, kill ratio)” value was 33.3.
Taken in the same sequence, the figures for `CCN1C(=CC(C)=Cc2sc3ccccc3[n+]2CC)Oc2ccccc21` [drawing 39|E|H|Me] were 0.05 µg/mL and 20.0.
On the same counts, the results for `CCN1C(=CC(=Cc2sc3ccccc3[n+]2CC)c2cccs2)Sc2ccccc21` [drawing 38|E|H|2Thienyl|H] are 0.16 µg/mL and 10.0.
Taken in the same sequence, the figures for `O=C(C[n+]1c(/C=C/C=C2/Nc3ccccc3S2)sc2ccccc21)N1CCOCC1` [drawing 36|CC(═O)morpholino|H] were greater than 0.32 µg/mL and 10.0.
As for `CC1CC2=C(c3ccccc31)N(C)/C(=C/C=C/c1sc3c([n+]1C)-c1ccccc1C(C)C3)S2` (stereo not shown) [drawing 43|M|4,5-H, 5-ME|4,5-H, 5-ME], the “CX (IC50 in the CX-1 cell line)” value turned out to be 0.08 µg/mL and the “CV/CX (selectivity, kill ratio)” value stood at 1.25.
Taken in the same sequence, the figures for `CCC(=Cc1sc2ccccc2[n+]1CC)C=C1Oc2ccccc2N1CC` [drawing 39|E|H|Et] were 0.03 µg/mL and 33.3.
As for `CCN1/C(=C\C=C\c2[se]c3ccccc3[n+]2CC)Sc2cc(O)c(O)cc21` [drawing 42|H|5,6-OH], the “CX (IC50 in the CX-1 cell line)” value turned out to be 0.300 µg/mL.
With `CN1C(=CC=Cc2[te]c3ccccc3[n+]2C)[Te]c2ccccc21` [Dye B19682], the CX (Table XV, symmetrical dyes) came to 0.3. The CV/CX (Table XV) is 16.7.
As to `CCN1/C(=C/C=C/c2sc3ccccc3[n+]2CC(=O)c2ccccc2)Oc2ccccc21` [drawing 37|CC(═O)Ph|Et], the “CX (IC50 in the CX-1 cell line)” value is 0.3 µg/mL and the “CV/CX (selectivity, kill ratio)” value is 10.0.
Take `CC[n+]1c(/C=C/C=C2\SC(C)=C(C)N2C)oc2ccccc21.[I-]` [Dye D-119]: the “CX (IC50 in the CX-1 cell line)” value came to 0.05 µg/mL and the “CV/CX (selectivity, kill ratio)” value is 60.
Take `CCN1C(=CC=Cc2sc3ccccc3[n+]2CC)Sc2cc3ccccc3cc21` [naphtho/2,3/thiazole]: the CX (Table XVI, unsymmetrical dyes) is reported as 0.007. In addition, under “Table XVI”, the CV/CX is reported as 57.0.
For the compound `CCN1/C(=C/C(=C/c2sc3ccccc3[n+]2CC)C(=S)[S-])Sc2ccccc21` [drawing 38|E|H|C(═S)S—|H], the “CX (IC50 in the CX-1 cell line)” value is greater than 0.32 µg/mL and the “CV/CX (selectivity, kill ratio)” value is recorded as less than 8.7.
With `CCN1C=C(c2ccccc2)SC1=CC=Cc1sc2ccccc2[n+]1CC` [Dye 5-Ph-thiazole], under “Table XVI, unsymmetrical dyes”, the CX was determined as 0.03. Further, the CV/CX (Table XVI) was 16.7.
With `CCN1/C(=C/C=C/c2sc3ccccc3[n+]2CC)Oc2ccc(C)cc21` [drawing 44|E|H|5-Me], the “CV/CX (selectivity, kill ratio)” value was 4.0.
`CC[n+]1c(/C=C/C=C2\[Te]c3ccc4ccccc4c3N2C)sc2ccccc21` [naphtho/1,2/tellurazole] came in with a CX (Table XVI, unsymmetrical dyes) of 0.10. Under “Table XVI”, the CV/CX was 3.0.
Turning to `CCN1/C(=C/C=C/c2oc3ccc(-c4ccccc4)cc3[n+]2CCNC(C)=O)Sc2ccc(OC)cc21.F[B-](F)(F)F` [Dye D-154], the “CX (IC50 in the CX-1 cell line)” value amounted to 0.05 µg/mL and the “CV/CX (selectivity, kill ratio)” value is given as 160.
In the case of `CCN1/C(=C/C=C/c2sc3ccccc3[n+]2CC)Oc2cc(C)c(C)cc21` [drawing 44|E|H|5,6-Me], the “CV/CX (selectivity, kill ratio)” value is listed as greater than 20.0.
With `CCN1C(=CC=Cc2sc3ccc(Cl)cc3[n+]2CC)Sc2ccc(Cl)cc21` [drawing 41|ET|5-Cl|5-Cl], the “CX (IC50 in the CX-1 cell line)” value was found to be 0.04 µg/mL and the “CV/CX (selectivity, kill ratio)” value is 40.0. Also, under setting [2], the “CX (IC50 in the CX-1 cell line)” value turned out to be 0.30 µg/mL and the “CV/CX (selectivity, kill ratio)” value worked out at 16.7.
In the case of `CC[n+]1c(/C=C(/C=C2\Sc3ccccc3N2C)Sc2ccccc2)sc2ccccc21` [drawing 38|E/M|H|SPh|H], the “CX (IC50 in the CX-1 cell line)” value came to 0.07 µg/mL and the “CV/CX (selectivity, kill ratio)” value is 10.0.
On the same counts, the results for `CCC(/C=C1\Oc2ccc3ccccc3c2N1C)=C\c1sc2ccc3ccccc3c2[n+]1C` [drawing 40|M|Et] are 0.08 µg/mL and 5.0.
With `CCN1/C(=C/C=C/c2sc3ccccc3[n+]2CCC=NNS(=O)(=O)c2ccc(C)cc2)Oc2ccccc21` [R1=CCC═NNS02Ph-4C, R2=Et], the CX under setting [1] is on record as 0.3. Further, the CV/C (Table XXI) came to 33.3.
Taken in the same sequence, the figures for `CCN1/C(=C/C=C/c2sc3ccccc3[n+]2CCS(=O)(=O)CC)Oc2ccccc21` [R1=CCS02CC, R2=Et] were 0.3 and greater than 33.3.
Regarding `CCN1/C(=C/C=C/c2sc3ccccc3[n+]2CC(N)=O)Oc2ccccc21` [drawing 37|CC(═O)N|Et], the “CV/CX (selectivity, kill ratio)” value was greater than 10.0.
Still for that read-out and setting: to `CCOC(=O)c1c(C)c(C=CC=C2SCCN2C)cc2[n+]1CCc1ccccc1-2.[O-][Cl+3]([O-])([O-])[O-]` [Dye D-171] belongs 62.5.
Consider `CSCCN1/C(=C\C=C\c2sc3ccccc3[n+]2CCSC)Sc2ccccc21` [drawing 36|CCSMe|CCSMe], for which the “CX (IC50 in the CX-1 cell line)” value is 0.015 µg/mL and the “CV/CX (selectivity, kill ratio)” value was 12.
`CCN1/C(=C/C=C/c2sc3ccccc3[n+]2CCC=NNC(N)=S)Oc2ccccc21` [R1=CCC═NNC(═S)N, R2=Et]: under setting [1], the CX is given as greater than 1.0. Also, the CV/C (Table XXI) came to 1.0.
